The source of these data is US20240181136A1, “LOW MOLECULAR WEIGHT HYDROGELS COMPRISING THIOGLYCOLIPIDS” (ARIZONA BOARD OF REGENTS ON BEHALF OF THE UNIVERSITY OF …, priority 2021, published 2024).

The structures appear in SMILES notation.

What all share (type): physicochemical
The nature of data set [1]: Visual assessment of thioglycolipid aggregation and hydrogel formation. Conditions: for Hydrogelation on quenching: quenched at temperatures <20° C. Also on record: key to Visual assessment of aggregation and gelation: G = gel; F = fibrous aggregation; C = clear solution; O = cloudy solution. On the procedure: Preparation of Thioglycolipid Solutions and Hydrogel Fabrication. Aqueous solutions of thioglycolipids were prepared by weighing 2-3 mg of thioglycolipids and adding an appropriate volume of water to make solution samples at desired concentrations in vials. The vials were capped, sealed with Parafilm, and heated to 75° C. (or 85° C. for LacSC12) until the thioglycolipids were completely dissolved, which typically required about 1 min. The samples were then allowed to cool to ambient temperature. Above some minimal concentration, the solution forms hydrogels upon cooling (FIG. 1). While hydrogelation happens in under 1 min, the gels were allowed to equilibrate at room temperature for 15 min before any analysis. To make metastable thiocellobiosides gels, the samples were quenched at −4° C. after dissolution at 75° C. Although the metastable hydrogels also formed in under 1 min, the gels were allowed to equilibrate at −4° C. for 15 min before analysis.
Visual Assessment of Thioglycolipid Hydrogel Formation. A wide range of thioglycolipid solutions were evaluated to establish concentration conditions (wt %) under which hydrogelation occurs and to assess the formation of other phases. For LacSC8 and LacSC12 solutions at concentrations <0.5 wt %, the solutions were either clear (C) or contain large aggregates (O) (i.e., cloudy). These solutions formed partial hydrogels surrounded by clear solution between 0.5 but <1 wt %, and were completely gelled at concentrations of 1 wt % and greater. Solutions of LacSC10 at <2 wt % formed partial hydrogels surrounded by clear liquid but were completely gelled at or above 2 wt %. […] CelSC10 and CelSC12 solutions formed settled fibrous aggregates in clear solution after equilibrating at ambient temperature overnight. […] If retained at 5° C. , the CelSC10 and CelSC12 gels were stable for at least 6 months. […] Powder x-ray diffraction confirmed that these fibrous aggregates were crystalline. Overall, the thioglycolipid concentration at which hydrogelation can be observed can be as low as 0.05 wt %, depending on thioglycolipid system, compared to the typical concentration for hydrogelation of at least 1 wt % commonly reported in the literature, although 0.25-2 wt % is the concentration range wherein these thioglycolipid solutions became fully hydrogelled. The existence of metastable hydrogels and the ability to tune the transformation of hydrogels into crystals may allow their potential use as smart materials for different applications.

Data set [2] can be described thus: Differential scanning calorimetry of hydrogels (gel-sol phase transition). Conditions: 1 wt % hydrogel; for Phase transition temperature: DSC heating 5° C. per min; for Enthalpy (J/g hydrogel) / Enthalpy (kJ/mol thioglycolipids): gel-sol transition. As to the method: Differential Scanning calorimetry. A Mettler Toledo DSC 823e differential scanning calorimeter, equipped with cooling apparatus, was used for measurement of the phase transition temperature and enthalpy of the gels. Hydrogel samples were first prepared using the fabrication method described above. Then, they were heated to 75° C. (or 85° C. for LacSC12) until they were in the solution state and then pipetted into aluminum, 40 μL DSC pans and capped with lids. The amount of hydrogel in each aluminum pan was controlled to about 6-8 mg. The pans were maintained at 85° C. for 1 min to ensure the samples were in the solution state. Then, they were cooled to 5° C. and maintained at this temperature for 20 min to ensure the formation of hydrogels. […], the samples were heated from 5° C. to 85° C. at a heating rate at 5° C. per min.
Thermal Properties by DSC. Differential scanning calorimetry (DSC) was used to determine the phase transition temperature as well as to explore the possible existence of other lyotropic phases. DSC involves monitoring the enthalpy change during a phase transition, which can be used as a measure of hydrogel stability. The results (Table 2) indicated an endothermic transition between 30° C. and 80° C. for all thioglycolipid hydrogels studied, and these transitions matched those observed visually in bulk solutions. Overall, hydrogels with longer carbon chains had higher thermostability (i.e., higher phase transition temperature). In addition, the LacSCx (x=10,12) hydrogels had higher thermostability than the CelSCx (x=10,12) hydrogels, despite similar phase transition enthalpies. […] However, the LacSC12 and CelSC12 hydrogels required twice the enthalpy compared to the other three.

Data set [3] in a line: Small amplitude oscillatory shear rheology of hydrogels (strain sweep, frequency sweep, thixotropy). Conditions: LacSC10 2 wt %, LacSC12 1 wt %. On the procedure:
Rheometry. The viscoelastic mechanical properties of the hydrogels were characterized using small amplitude oscillatory shear rheology on a Discovery Hybrid Rheometer 2 (TA Instruments, USA) with a sandblasted 20 mm cone-and-plate geometry at a 1° angle and a sandblasted stage. Inertia, friction, and rotational mapping calibrations were performed prior to each experiment. A Peltier temperature-controlled stage was maintained at 4° C., 10° C., 25° C., or 37° C. for rheology testing. Hydrogels were heated in a water bath above their transition temperature for 5 min, then transferred to the stage before the geometry was lowered quickly (1-3 sec) to the testing gap height of 50 μm. Excess gel was trimmed from the edges of the assembly. To control evaporation, the assembly was encased in a solvent trap with a water seal, and a mineral oil barrier was placed around the edges of the trap. Hydrogels were allowed to form and relax for 1 hour prior to experimentation. Strain sweeps were performed from 0.01% to 1000% shear strain at a constant 10 rad/s angular frequency. G′ (storage modulus) and G″ (loss modulus) were determined by averaging data within the linear viscoelastic region of the strain sweep. Frequency sweeps were performed from 0.01 rad/s to 100 rad/s at a constant 0.01% shear strain. Thixotropy experiments were conducted by cycling the shear strain between 0.01% and 100%. […]

The mark [4] stands for this setting: thioglycolipid concentration 0.05 wt %, room temperature.
[5] abbreviates: thioglycolipid concentration 0.1 wt %, room temperature.
Setting [6] is: thioglycolipid concentration 0.25 wt %, room temperature.
Where [7] appears, read: thioglycolipid concentration 0.5 wt %, room temperature.
[8] abbreviates: thioglycolipid concentration 0.75 wt %, room temperature.
Setting [9] is: thioglycolipid concentration 1 wt %, room temperature.
[10] abbreviates: thioglycolipid concentration 2 wt %, room temperature.
[11] abbreviates: thioglycolipid concentration 5 wt %, room temperature.
Where [12] appears, read: thioglycolipid concentration 10 wt %, room temperature.

Consider `CCCCCCCCS[C@@H]1O[C@H](CO)[C@@H](O[C@@H]2O[C@H](CO)[C@@H](O)[C@H](O)[C@H]2O)[C@H](O)[C@H]1O` [CelSC8], for which, in data set [1] (room temperature, 0.05-10 wt %), the “Visual state of solutions over all concentrations studied” value is on record as “remained as clear solutions at all concentrations studied”. Also, the “Visual assessment of aggregation and gelation” value (“Visual assessment” below) in data set [1] (setting [4]), in data set [1] (setting [5]), in data set [1] (setting [6]), in data set [1] (setting [7]), in data set [1] (setting [8]) and in data set [1] (setting [9]) was “C” in each case. The “Visual assessment” value in data set [1] (setting [10]), in data set [1] (setting [11]) and in data set [1] (setting [12]) was “C” throughout.

Consider `CCCCCCCCCCS[C@@H]1O[C@H](CO)[C@@H](O[C@@H]2O[C@H](CO)[C@@H](O)[C@H](O)[C@H]2O)[C@H](O)[C@H]1O` [CelSC10], for which the Hydrogelation on quenching result in data set [1] is “completely hydrogelled”. Besides, the “Visual assessment” value is “F” in data set [1] (setting [4]); “F” in data set [1] (setting [5]); “G or F” in data set [1] (setting [6]); “G or F” in data set [1] (setting [7]); “G or F” in data set [1] (setting [8]); “G or F” in data set [1] (setting [9]). Also, the “Visual assessment” value in data set [1] (setting [10]), in data set [1] (setting [11]) and in data set [1] (setting [12]) was “G or F” throughout. Also, the Phase transition temperature in data set [2] is 31-37 °C. Further, the “Enthalpy (J/g hydrogel)” value in data set [2] is on record as 0.18 ± 0.01 J/g hydrogel. In addition, the “Enthalpy (kJ/mol thioglycolipids)” value in data set [2] came out at 9.0 ± 0.6 kJ/mol thioglycolipids.

In the case of `CCCCCCCCCCCCS[C@@H]1O[C@H](CO)[C@@H](O[C@@H]2O[C@H](CO)[C@@H](O)[C@H](O)[C@H]2O)[C@H](O)[C@H]1O` [CelSC12], the Hydrogelation on quenching result in data set [1] was “completely hydrogelled”. Moreover, the “Visual assessment” value in data set [1] (setting [4]) was “F”; in data set [1] (setting [5]), “F”; in data set [1] (setting [6]), “G or F”; in data set [1] (setting [7]), “G or F”; in data set [1] (setting [8]), “G or F”; in data set [1] (setting [9]) it was “G or F”. Besides, the “Visual assessment” value in data set [1] (setting [10]), in data set [1] (setting [11]) and in data set [1] (setting [12]) was “G or F” throughout. Moreover, the Phase transition temperature in data set [2] is 42-54 °C. Further, in data set [2], the “Enthalpy (J/g hydrogel)” value is 0.42 ± 0.06 J/g hydrogel. The “Enthalpy (kJ/mol thioglycolipids)” value in data set [2] came out at 22.3 ± 3.3 kJ/mol thioglycolipids.

In the case of `CCCCCCCCS[C@@H]1O[C@H](CO)[C@@H](O[C@@H]2O[C@H](CO)[C@H](O)[C@H](O)[C@H]2O)[C@H](O)[C@H]1O` [LacSC8], the “Visual assessment” value in data set [1] (setting [4]) is given as “C”; in data set [1] (setting [5]) it was “C”; in data set [1] (setting [6]) it was “C”; in data set [1] (setting [7]) it was “G + C”; in data set [1] (setting [8]), “G + C”; in data set [1] (setting [9]), “G”. For the same compound, the “Visual assessment” value in data set [1] (setting [10]), in data set [1] (setting [11]) and in data set [1] (setting [12]) was “G” in each case. Besides, the Phase transition temperature in data set [2] was 38-46 °C. Moreover, in data set [2], the “Enthalpy (J/g hydrogel)” value is reported as 0.20 ± 0.03 J/g hydrogel. Besides, in data set [2], the “Enthalpy (kJ/mol thioglycolipids)” value was 9.2 ± 1.4 kJ/mol thioglycolipids.

On to `CCCCCCCCCCCCS[C@@H]1O[C@H](CO)[C@@H](O[C@@H]2O[C@H](CO)[C@H](O)[C@H](O)[C@H]2O)[C@H](O)[C@H]1O` [LacSC12], for which the “Visual assessment” value is “O” in data set [1] (setting [4]); “O” in data set [1] (setting [5]); “O” in data set [1] (setting [6]); “G + C” in data set [1] (setting [7]); “G + C” in data set [1] (setting [8]); “G” in data set [1] (setting [9]). The “Visual assessment” value in data set [1] (setting [10]), in data set [1] (setting [11]) and in data set [1] (setting [12]) was “G” each time. For the same compound, the Phase transition temperature in data set [2] was 63-79 °C. In addition, the “Enthalpy (J/g hydrogel)” value in data set [2] is recorded as 0.39 ± 0.10 J/g hydrogel. Further, the “Enthalpy (kJ/mol thioglycolipids)” value in data set [2] was determined as 20.7 ± 5.3 kJ/mol thioglycolipids. In data set [3], the “Gel properties at 37° C.” value is “retained their gel properties”.
